Experimental data as given in patent EP4745134A1 (Jiangsu Yahong Meditech Co., Ltd., priority 2023, dated 2025).
Where two headings read alike, the source gives them in different places.

Tests used:
[1] = target: PRMT5-MTA (Homo sapiens, UniProt O14744); test: Enzymatic inhibitory activity against PRMT5-MTA (AlphaScreen); assay type: biochemical
Outline: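 PRMT5/[…] (1 nM) was preincubated for 30 min at room temperature with 1 µM […] and 2.5 µM SAM, then exposed to compound (10-point, 3-fold from 1000 nM) for 15 min at 23 °C. Histone H4 substrate (5 nM) was added and reacted for 45 min at 23 °C. Symmetric dimethyl-R3 H4 was detected by AlphaScreen and IC50 calculated.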

[2] = test system: HCT116 MTAP KO cells; test: Inhibitory activity against cell proliferation (CellTiter Glo, 6 days), HCT116 MTAP KO; assay type: cell-based; conditions: for IC50: Homo sapiens, HCT-116, 144 h, HCT116 MTAP KO cells, 6 days, CellTiter Glo, read-out: HCT116 MTAP KO IC50; for Selectivity HCT 116-WT/ HCT116 MTAP KO: ratio of IC50 HCT116-WT / HCT116 MTAP KO
Outline: (§1)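 Cells were seeded at 250 per well in McCoy's 5A with 10% FBS and left overnight at 37°C, 5% CO2. Compounds were added as 8-point, 4-fold dilutions from 10000 nM, with DMSO-only controls, for 6 days. IC50 values came from CellTiter Glo luminescence.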

[3] = test system: HCT116-WT cells; test: Inhibitory activity against cell proliferation (CellTiter Glo, 6 days), HCT116-WT; assay type: cell-based; conditions: 144 h, HCT116-WT cells, 6 days, CellTiter Glo; read-out: HCT116-WT IC50
Outline: as §1

Chain of PRMT5-MTA (O14744 whole entry): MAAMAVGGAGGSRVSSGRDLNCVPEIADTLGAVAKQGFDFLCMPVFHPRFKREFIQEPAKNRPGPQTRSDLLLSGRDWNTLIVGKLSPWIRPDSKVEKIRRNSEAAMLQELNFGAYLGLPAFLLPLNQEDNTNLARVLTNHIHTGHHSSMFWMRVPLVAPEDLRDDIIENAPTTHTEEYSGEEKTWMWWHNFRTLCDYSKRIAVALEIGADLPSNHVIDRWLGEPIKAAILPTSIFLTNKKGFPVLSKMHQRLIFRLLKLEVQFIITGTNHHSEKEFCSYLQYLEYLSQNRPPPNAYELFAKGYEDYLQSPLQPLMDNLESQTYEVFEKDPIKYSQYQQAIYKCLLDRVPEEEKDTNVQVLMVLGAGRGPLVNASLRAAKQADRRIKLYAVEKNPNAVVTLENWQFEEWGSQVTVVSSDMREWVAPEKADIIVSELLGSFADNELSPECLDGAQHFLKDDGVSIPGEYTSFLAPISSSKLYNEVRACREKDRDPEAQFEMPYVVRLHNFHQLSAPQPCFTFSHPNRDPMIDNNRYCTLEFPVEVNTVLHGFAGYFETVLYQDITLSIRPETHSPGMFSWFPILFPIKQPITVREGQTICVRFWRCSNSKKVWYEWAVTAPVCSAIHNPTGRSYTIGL
Chain of PRMT5-MTA (Q9BQA1 whole entry partner): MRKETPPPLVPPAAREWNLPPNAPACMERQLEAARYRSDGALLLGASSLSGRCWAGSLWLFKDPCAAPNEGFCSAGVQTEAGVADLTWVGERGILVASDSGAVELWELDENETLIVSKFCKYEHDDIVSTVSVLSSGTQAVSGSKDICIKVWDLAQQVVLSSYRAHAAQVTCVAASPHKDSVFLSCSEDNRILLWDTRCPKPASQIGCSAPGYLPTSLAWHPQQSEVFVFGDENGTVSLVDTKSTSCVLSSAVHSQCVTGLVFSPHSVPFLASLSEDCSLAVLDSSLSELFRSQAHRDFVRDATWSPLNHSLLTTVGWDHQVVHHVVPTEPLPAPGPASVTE

Row | SMILES | IC50 ([1]; read-out: IC50) | IC50 [2] | Selectivity HCT 116-WT/ HCT116 MTAP KO [2] | IC50 [3] | IC50 [1]
1 | Cn1ncc2c(N)nc3cc(Cl)c(C(=O)N4CC(C)(F)CN4c4ncccc4F)cc3c21 (centres unmarked) [Example 425, (4-amino-7-chloro-1-methyl-1H-pyrazolo [4,3-c]quinolin-8-yl)(4-fluoro-2-(3-fluoropyridin-2-yl)-4-methylpyrazolidin-1-yl)m ethanone] | 8.3 nM | 54 nM | 15.74 | 850 nM | 
2 | Cc1cc2cc(C(=O)N(Cc3ccc(C4=CCCOC4)cn3)N(C)c3ncccn3)ccc2nc1N [Example 187, 2-amino-N-((5-(5,6-dihydro-2H-pyran-3-yl)pyridin-2-yl)methyl)-N',3-dimethyl-N' -(pyrimidin-2-yl)quinoline-6-carbohydrazide] | 2.3 nM | 33 nM | 23.88 | 788 nM | 
3 | Cc1cc2cc(C(=O)N(Cc3ccc(-c4scnc4C(F)F)cn3)N(c3ncccn3)C3CC3)ccc2nc1N [Example 239, 2-amino-N'-cyclopropyl-N-((5-(4-(difluoromethyl)thiazol-5-yl)pyridin-2-yl)methyl)-3-methyl-N'-(pyrimidin-2-yl)quinoline-6-carbohydrazide] | 7.3 nM | 14 nM | 18.64 | 261 nM | 
4 | Cc1cc2nc(N)c3cnn(C)c3c2cc1C(=O)N1CC(C)CN1c1ncc(-c2cnc3c(cnn3C)c2)cc1F (centres unmarked) [Example 479, (4-amino-1,7-dimethyl-1H-pyrazolo[4,3-c]quinolin-8-yl)(2-(3-fluoro-5-(1-methyl-1H-pyrazolo[3,4-b]pyridin-5-yl)pyridin-2-yl)-4-methylpyrazolidin-1-yl)methanone] | 5.3 nM | 32 nM | 39.66 | 1270 nM | 
5 | CC(C)c1cc2cc(C(=O)N(Cc3ccc(C(F)(F)F)cn3)N(C)c3ncccn3)ccc2nc1N [Example 26, 2-amino-3-isopropyl-N'-methyl-N'-(pyrimidin-2-yl)-N-((5-(trifluoromethyl)pyridin-2-yl)methyl)quinoline-6-carbohydrazide] | 2.4 nM | 444 nM | 20.73 | 9200 nM | 
6 | Cc1cc2cc(C(=O)N(Cc3ccc(-c4scnc4C#N)cn3)N(C)c3ncccn3)ccc2nc1N [Example 243, 2-amino-N-((5-(4-cyanothiazol-5-yl)pyridin-2-yl)methyl)-N',3-dimethyl-N'-(pyrimidin-2-yl)quinoline-6-carbohydrazide] | 3.4 nM | 6.5 nM | 22.77 | 148 nM | 
7 | Cc1cc2cc(C(=O)N(Cc3ccc(C(F)(F)F)cn3)N(C)c3ncccc3C(F)(F)F)ccc2nc1N [Example 53, 2-amino-N',3-dimethyl-N'-(3-(trifluoromethyl)pyridin-2-yl)-N-((5-(trifluoromethy 1)pyridin-2-yl)methyl)quinoline-6-carbohydrazide] | 1.5 nM | 90 nM | 25.34 | 2280 nM | 
8 | Cc1cc2nc(N)c3cnn(C)c3c2cc1C(=O)N1CC(C)CN1c1ccncc1F (centres unmarked) [Example 379, (4-amino-1,7-dimethyl-1H-pyrazolo[4,3-c]quinolin-8-yl)(2-(3-fluoropyridin-4-yl)-4-methylpyrazolidin-1-yl)methanone] | 7.8 nM | 40 nM | 45.38 | 1820 nM | 
9 | Cc1cc2cc(C(=O)N(Cc3cc(C(F)(F)F)ccn3)N(C)c3ncccn3)ccc2nc1N [Example 61, 2-amino-N',3-dimethyl-N'-(pyrimidin-2-yl)-N-((4-(trifluoromethyl)pyridin-2-yl)methyl)quinoline-6-carbohydrazide] | 2.4 nM | 126 nM | 18.95 | 2390 nM | 
10 | Cc1cc2cc(C(=O)N(Cc3ccc(-c4scnc4C4CC4)cn3)N(c3ncccn3)C3CC3)ccc2nc1N [Example 240, 2-amino-N'-cyclopropyl-N-((5-(4-cyclopropylthiazol-5-yl)pyridin-2-yl)methyl)-3-methyl-N'-(pyrimidin-2-yl)quinoline-6-carbohydrazide] | 3.9 nM | 36 nM | 11.00 | 396 nM | 
11 | Cc1cc2cc(C(=O)N(Cc3ccc(-c4ccsc4)cn3)N(C)c3ncccn3)ccc2nc1N [Example 201, 2-amino-N',3-dimethyl-N'-(pyrimidin-2-y 1)-N-((5-(thien-3-yl)pyridin-2-yl)methyl) quinoline-6-carbohydrazide] | 2.1 nM | 51 nM | 24.25 | 1240 nM | 
12 | Cc1cc2nc(N)c3cnn(C)c3c2cc1C(=O)N1CC(C)CN1c1cccc(Cl)n1 (centres unmarked) [Example 403, (4-amino-1,7-dimethyl-1H-pyrazolo[4,3-c]quinolin-8-yl)(2-(6-chloropyridin-2-yl)-4-methylpyrazolidin-1-yl)methanone] | 3.8 nM | 14 nM | 19.79 | 277 nM | 
13 | Cc1cc2nc(N)c3cnn(C)c3c2cc1C(=O)N1CC(C(F)(F)F)CN1c1cccc(F)n1 (centres unmarked) [Example 352, (4-amino-1,7-dimethyl-1H-pyrazolo[4,3-c]quinolin-8-yl)(2-(6-fluoropyridin-2-yl)-4-(trifluoromethyl)pyrazolidin-1-yl)meth anone] | 12.5 nM | 77 nM | 29.42 | 2260 nM | 
14 | Cc1cc2cc(C(=O)N(Cc3ccc(C(F)(F)F)cn3)n3ccc4cccnc43)ccc2nc1N [Example 21, 2-amino-3-methyl-N-(1H-pyrrolo[2,3-b]pyridin-1-yl)-N-((5-(trifluoromethyl)pyridin-2-yl)methyl)quinoline-6-carboxamide] | 1.9 nM | 85 nM | 27.53 | 2340 nM | 
15 | Cc1cc2nc(N)c3c(c2cc1C(=O)N1CC(C)CN1c1ncccc1F)COC3 (centres unmarked) [Example 512, (4-amino-7-methyl-1,3-dihydrofuro[3,4-c]quinolin-8-yl)(2-(3-fluoropyridin-2-yl)-4-methylpyrazolidin-1-yl)methanone] | 5 nM | 259 nM | 22.53 | 5830 nM | 
16 | Cn1ncc2c(N)nc3cc(Cl)c(C(=O)N4CC(F)(F)CN4c4ncc(Br)cc4F)cc3c21 [Example 456, (4-amino-7-chloro-1-methyl-1H-pyrazolo [4,3-c]quinolin-8-yl)(2-(5-bromo-3-fluor opyridin-2-yl)-4,4-difluoropyrazolidin-1-yl)methanone] | 7 nM | 28 nM | 68.89 | 1930 nM | 
17 | C=C1CN(C(=O)c2cc3c(cc2Cl)nc(N)c2cnn(C)c23)N(c2ccccc2F)C1 [Example 431, (4-amino-7-chloro-1-methyl-1H-pyrazolo [4,3-c]quinolin-8-yl)(2-(2-fluorophenyl)-4-methylenepyrazolidin-1-yl)methanone] | 5.4 nM | 10 nM | 24.80 | 248 nM | 
18 | CN(c1ncccn1)N(Cc1ccc(C(F)(F)F)cn1)C(=O)c1ccc2nc(N)c3ccncc3c2c1 [Example 78, 5-amino-N'-methyl-N'-(pyrimidin-2-yl)-N-((5-(trifluoromethyl)pyridin-2-yl)methyl)benzo[c][2,6]naphthyridine-9-carbohydrazide] | 2 nM | 14 nM | 12.07 | 169 nM | 
19 | COc1cccc(N2CC(C)CN2C(=O)c2cc3c(cc2C)nc(N)c2cnn(C)c23)n1 (centres unmarked) [Example 406] |  | 23 nM | 39.39 | 906 nM | 4.3 nM
20 | Cn1ncc2c(N)nc3cc(Cl)c(C(=O)N4CC(F)(F)CN4c4ncc(F)cc4F)cc3c21 [Example 458, (4-amino-7-chloro-1-methyl-1H-pyrazolo [4,3-c]quinolin-8-yl)(2-(3,5-difluoropyridin-2-yl)-4,4-difluoropyrazolidin-1-yl)met hanone] | 5.1 nM | 15 nM | 24.73 | 371 nM | 
21 | Cc1cc2nc(N)c3cnn(C)c3c2cc1C(=O)N1CCC(C)N1c1ncc(Br)cc1F (centres unmarked) [Example 390, (4-amino-1,7-dimethyl-1H-pyrazolo[4,3-c]quinolin-8-yl)(2-(5-bromo-3-fluoropyridin-2-yl)-3-methylpyrazolidin-1-yl)metha none] | 8.6 nM | 233 nM | >42.92 | > 10000 nM | 
22 | C=C1CN(C(=O)c2cc3c(cc2Cl)nc(N)c2cnn(C)c23)N(c2ncc(Br)cc2F)C1 [Example 430, (4-amino-7-chloro-1-methyl-1H-pyrazolo [4,3-c]quinolin-8-yl)(2-(5-bromo-3-fluor opyridin-2-yl)-4-methylenepyrazolidin-1-yl)methanone] | 5.5 nM | 22 nM | 26.59 | 585 nM | 
23 | Cc1cc2cc(C(=O)N(Cc3ccc(-c4ccncc4)cn3)N(C)c3ncccc3F)ccc2nc1N [Example 178, N-([3,4'-bipyridine]-6-ylmethyl)-2-amino -N'-(3-fluoropyridin-2-yl)-N',3-dimethylq uinoline-6-carbohydrazide] | 1.6 nM | 21 nM | 23.14 | 486 nM | 
